Measured values taken from paper PMC6891286, “Towards the Development of an In vivo Chemical Probe for Cyclin G Associated Kinase (GAK)” (Molecules, 2019).

Columns and labels:
Assay in all cases: KINOMEscan
Format in all cases: binding
[1] = target: T1, PKNB(M.tuberculosis) (Mycobacterium tuberculosis, UniProt P9WI81); details: 35 at 1 µM; read-out: % inhibition
T1 construct: purchased Eurofins DiscoverX (KINOMEscan)
Description: (§1) KinomeScan Assay on 35 was performed as previously described at EuroFins DiscoverX (Fremont, CA, USA).

[2] = target: T2, MLK1 (Homo sapiens, UniProt P80192); details: 35 at 1 µM; read-out: % inhibition
T2 construct: purchased Eurofins DiscoverX (KINOMEscan)
Description: as §1

[3] = target: T3, BIKE (Homo sapiens, UniProt Q9NSY1); details: 35 at 1 µM; read-out: % inhibition
T3 construct: purchased Eurofins DiscoverX (KINOMEscan)
Description: as §1

[4] = target: T4, PIK3CA(H1047Y) (Homo sapiens, UniProt P42336, H1047Y); details: 35 at 1 µM; read-out: % inhibition
T4 construct: purchased Eurofins DiscoverX (KINOMEscan)
Description: as §1

[5] = target: T5, ULK1 (Homo sapiens, UniProt O75385); details: 35 at 1 µM; read-out: % inhibition
T5 construct: purchased Eurofins DiscoverX (KINOMEscan)
Description: as §1

[6] = target: T6, BTK (Homo sapiens, UniProt Q06187); details: 35 at 1 µM; read-out: % inhibition
T6 construct: purchased Eurofins DiscoverX (KINOMEscan)
Description: as §1

[7] = target: T7, RSK1(Kin.Dom.2-C-terminal) (Homo sapiens, UniProt Q15418); details: 35 at 1 µM; read-out: % inhibition
T7 construct: RSK1(Kin.Dom.2-C-terminal); purchased Eurofins DiscoverX (KINOMEscan)
Description: as §1

[8] = target: T8, ABL1(H396P)-phosphorylated (Homo sapiens, UniProt P00519, H396P); details: 35 at 1 µM; read-out: % inhibition
T8 construct: purchased Eurofins DiscoverX (KINOMEscan)
Description: as §1

[9] = target: T9, RPS6KA4(Kin.Dom.2-C-terminal) (Homo sapiens, UniProt O75676); details: 35 at 1 µM; read-out: % inhibition
T9 construct: RPS6KA4(Kin.Dom.2-C-terminal); purchased Eurofins DiscoverX (KINOMEscan)
Description: as §1

[10] = target: T10, SIK (Homo sapiens, UniProt P57059); details: 35 at 1 µM; read-out: % inhibition
T10 construct: purchased Eurofins DiscoverX (KINOMEscan)
Description: as §1

[11] = target: T11, CSNK2A1 (Homo sapiens, UniProt P68400); details: 35 at 1 µM; read-out: % inhibition
T11 construct: purchased Eurofins DiscoverX (KINOMEscan)
Description: as §1

[12] = target: T12, ERK4 (Homo sapiens, UniProt P31152); details: 35 at 1 µM; read-out: % inhibition
T12 construct: purchased Eurofins DiscoverX (KINOMEscan)
Description: as §1

[13] = target: T13, PIK3CA(C420R) (Homo sapiens, UniProt P42336, C420R); details: 35 at 1 µM; read-out: % inhibition
T13 construct: purchased Eurofins DiscoverX (KINOMEscan)
Description: as §1

[14] = target: T14, BUB1 (Homo sapiens, UniProt O43683); details: 35 at 1 µM; read-out: % inhibition
T14 construct: purchased Eurofins DiscoverX (KINOMEscan)
Description: as §1

[15] = target: T15, ABL1(H396P)-nonphosphorylated (Homo sapiens, UniProt P00519, H396P); details: 35 at 1 µM; read-out: % inhibition
T15 construct: purchased Eurofins DiscoverX (KINOMEscan)
Description: as §1

[16] = target: T16, PIKFYVE (Homo sapiens, UniProt Q9Y2I7); details: 35 at 1 µM; read-out: % inhibition
T16 construct: purchased Eurofins DiscoverX (KINOMEscan)
Description: as §1

[17] = target: T17, MST4 (Homo sapiens, UniProt Q9P289); details: 35 at 1 µM; read-out: % inhibition
T17 construct: purchased Eurofins DiscoverX (KINOMEscan)
Description: as §1

[18] = target: T18, TSSK3 (Homo sapiens, UniProt Q96PN8); details: 35 at 1 µM; read-out: % inhibition
T18 construct: purchased Eurofins DiscoverX (KINOMEscan)
Description: as §1

[19] = target: T19, MELK (Homo sapiens, UniProt Q14680); details: 35 at 1 µM; read-out: % inhibition
T19 construct: purchased Eurofins DiscoverX (KINOMEscan)
Description: as §1

[20] = target: T20, BRAF(V600E) (Homo sapiens, UniProt P15056, V600E); details: 35 at 1 µM; read-out: % inhibition
T20 construct: purchased Eurofins DiscoverX (KINOMEscan)
Description: as §1

[21] = target: T21, CSNK1D (Homo sapiens, UniProt P48730); details: 35 at 1 µM; read-out: % inhibition
T21 construct: purchased Eurofins DiscoverX (KINOMEscan)
Description: as §1

[22] = target: T22, DCAMKL3 (Homo sapiens, UniProt Q9C098); details: 35 at 1 µM; read-out: % inhibition
T22 construct: purchased Eurofins DiscoverX (KINOMEscan)
Description: as §1

[23] = target: T23, ERN1 (Homo sapiens, UniProt O75460); details: 35 at 1 µM; read-out: % inhibition
T23 construct: purchased Eurofins DiscoverX (KINOMEscan)
Description: as §1

[24] = target: T24, PIP5K2B (Homo sapiens, UniProt P78356); details: 35 at 1 µM; read-out: % inhibition
T24 construct: purchased Eurofins DiscoverX (KINOMEscan)
Description: as §1

[25] = target: T25, VEGFR2 (Homo sapiens, UniProt P35968); details: 35 at 1 µM; read-out: % inhibition
T25 construct: purchased Eurofins DiscoverX (KINOMEscan)
Description: as §1

[26] = target: T26, TTK (Homo sapiens, UniProt P33981); details: 35 at 1 µM; read-out: % inhibition
T26 construct: purchased Eurofins DiscoverX (KINOMEscan)
Description: as §1

[27] = target: T27, MST1R (Homo sapiens, UniProt Q04912); details: 35 at 1 µM; read-out: % inhibition
T27 construct: purchased Eurofins DiscoverX (KINOMEscan)
Description: as §1

[28] = target: T28, CDKL2 (Homo sapiens, UniProt Q92772); details: 35 at 1 µM; read-out: % inhibition
T28 construct: purchased Eurofins DiscoverX (KINOMEscan)
Description: as §1

[29] = target: T29, PIK3CG (Homo sapiens, UniProt P48736); details: 35 at 1 µM; read-out: % inhibition
T29 construct: purchased Eurofins DiscoverX (KINOMEscan)
Description: as §1

[30] = target: T30, ACVR1 (Homo sapiens, UniProt Q04771); details: 35 at 1 µM; read-out: % inhibition
T30 construct: purchased Eurofins DiscoverX (KINOMEscan)
Description: as §1

[31] = target: T31, WEE2 (Homo sapiens, UniProt P0C1S8); details: 35 at 1 µM; read-out: % inhibition
T31 construct: purchased Eurofins DiscoverX (KINOMEscan)
Description: as §1

[32] = target: T32, CAMK2D (Homo sapiens, UniProt Q13557); details: 35 at 1 µM; read-out: % inhibition
T32 construct: purchased Eurofins DiscoverX (KINOMEscan)
Description: as §1

[33] = target: T33, NEK7 (Homo sapiens, UniProt Q8TDX7); details: 35 at 1 µM; read-out: % inhibition
T33 construct: purchased Eurofins DiscoverX (KINOMEscan)
Description: as §1

[34] = target: T34, BMPR1B (Homo sapiens, UniProt O00238); details: 35 at 1 µM; read-out: % inhibition
T34 construct: purchased Eurofins DiscoverX (KINOMEscan)
Description: as §1

[35] = target: T35, MEK5 (Homo sapiens, UniProt Q13163)
T35 construct: purchased Eurofins DiscoverX (KINOMEscan)
Description: as §1

[36] = target: T36, EPHA4 (Homo sapiens, UniProt P54764); details: 35 at 1 µM; read-out: % inhibition
T36 construct: purchased Eurofins DiscoverX (KINOMEscan)
Description: as §1

[37] = target: T37, LATS1 (Homo sapiens, UniProt O95835); details: 35 at 1 µM; read-out: % inhibition
T37 construct: purchased Eurofins DiscoverX (KINOMEscan)
Description: as §1

[38] = target: T38, TEC (Homo sapiens, UniProt P42680); details: 35 at 1 µM; read-out: % inhibition
T38 construct: purchased Eurofins DiscoverX (KINOMEscan)
Description: as §1

[39] = target: T39, STK36 (Homo sapiens, UniProt Q9NRP7); details: 35 at 1 µM; read-out: % inhibition
T39 construct: purchased Eurofins DiscoverX (KINOMEscan)
Description: as §1

[40] = target: T40, CDK11 (Homo sapiens, UniProt Q9BWU1); details: 35 at 1 µM; read-out: % inhibition
T40 construct: purchased Eurofins DiscoverX (KINOMEscan)
Description: as §1

[41] = target: T41, NEK10 (Homo sapiens, UniProt Q6ZWH5); details: 35 at 1 µM; read-out: % inhibition
T41 construct: purchased Eurofins DiscoverX (KINOMEscan)
Description: as §1

[42] = target: T42, NIM1 (Homo sapiens, UniProt Q8IY84); details: 35 at 1 µM; read-out: % inhibition
T42 construct: purchased Eurofins DiscoverX (KINOMEscan)
Description: as §1

T35 sequence (Q13163 whole entry): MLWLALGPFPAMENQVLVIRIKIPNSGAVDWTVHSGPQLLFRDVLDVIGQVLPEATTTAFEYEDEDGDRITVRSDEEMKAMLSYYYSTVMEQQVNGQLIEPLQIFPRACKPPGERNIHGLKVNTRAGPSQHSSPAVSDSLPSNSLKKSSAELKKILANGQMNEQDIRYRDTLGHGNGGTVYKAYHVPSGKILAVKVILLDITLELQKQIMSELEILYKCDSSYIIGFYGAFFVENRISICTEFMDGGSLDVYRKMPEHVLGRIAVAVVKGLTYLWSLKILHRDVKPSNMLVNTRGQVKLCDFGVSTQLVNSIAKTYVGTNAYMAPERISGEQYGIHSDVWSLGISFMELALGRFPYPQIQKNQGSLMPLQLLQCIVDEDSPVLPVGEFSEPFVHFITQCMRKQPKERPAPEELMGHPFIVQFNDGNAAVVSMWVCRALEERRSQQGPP
T14 sequence (O43683 whole entry): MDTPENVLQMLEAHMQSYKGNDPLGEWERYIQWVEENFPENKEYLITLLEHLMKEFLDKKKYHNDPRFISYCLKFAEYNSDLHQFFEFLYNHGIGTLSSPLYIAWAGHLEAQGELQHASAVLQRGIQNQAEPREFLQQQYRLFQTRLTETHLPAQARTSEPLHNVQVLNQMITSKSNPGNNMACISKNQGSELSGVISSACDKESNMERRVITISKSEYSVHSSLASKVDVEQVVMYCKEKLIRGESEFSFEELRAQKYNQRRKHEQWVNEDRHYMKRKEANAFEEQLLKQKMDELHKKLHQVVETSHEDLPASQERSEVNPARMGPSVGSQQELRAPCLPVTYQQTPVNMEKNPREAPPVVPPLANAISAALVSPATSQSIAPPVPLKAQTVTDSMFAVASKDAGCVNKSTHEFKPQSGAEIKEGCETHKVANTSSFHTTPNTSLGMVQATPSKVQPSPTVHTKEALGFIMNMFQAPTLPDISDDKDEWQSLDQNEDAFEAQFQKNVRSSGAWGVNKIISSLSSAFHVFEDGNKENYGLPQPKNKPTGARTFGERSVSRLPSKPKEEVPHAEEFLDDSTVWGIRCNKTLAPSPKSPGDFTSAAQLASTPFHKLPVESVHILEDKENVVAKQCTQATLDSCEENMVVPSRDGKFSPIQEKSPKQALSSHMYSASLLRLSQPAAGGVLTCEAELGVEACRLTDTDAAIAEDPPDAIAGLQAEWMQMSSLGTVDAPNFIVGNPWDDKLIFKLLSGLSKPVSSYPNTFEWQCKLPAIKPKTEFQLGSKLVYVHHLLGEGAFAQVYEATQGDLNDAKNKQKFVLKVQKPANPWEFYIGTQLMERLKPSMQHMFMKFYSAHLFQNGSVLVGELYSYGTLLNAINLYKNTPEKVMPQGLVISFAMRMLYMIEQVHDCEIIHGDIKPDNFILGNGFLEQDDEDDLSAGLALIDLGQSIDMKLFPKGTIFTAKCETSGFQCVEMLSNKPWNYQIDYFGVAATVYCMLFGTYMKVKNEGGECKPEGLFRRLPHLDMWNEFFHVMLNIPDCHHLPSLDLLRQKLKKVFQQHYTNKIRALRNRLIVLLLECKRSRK
T26 sequence (P33981 whole entry): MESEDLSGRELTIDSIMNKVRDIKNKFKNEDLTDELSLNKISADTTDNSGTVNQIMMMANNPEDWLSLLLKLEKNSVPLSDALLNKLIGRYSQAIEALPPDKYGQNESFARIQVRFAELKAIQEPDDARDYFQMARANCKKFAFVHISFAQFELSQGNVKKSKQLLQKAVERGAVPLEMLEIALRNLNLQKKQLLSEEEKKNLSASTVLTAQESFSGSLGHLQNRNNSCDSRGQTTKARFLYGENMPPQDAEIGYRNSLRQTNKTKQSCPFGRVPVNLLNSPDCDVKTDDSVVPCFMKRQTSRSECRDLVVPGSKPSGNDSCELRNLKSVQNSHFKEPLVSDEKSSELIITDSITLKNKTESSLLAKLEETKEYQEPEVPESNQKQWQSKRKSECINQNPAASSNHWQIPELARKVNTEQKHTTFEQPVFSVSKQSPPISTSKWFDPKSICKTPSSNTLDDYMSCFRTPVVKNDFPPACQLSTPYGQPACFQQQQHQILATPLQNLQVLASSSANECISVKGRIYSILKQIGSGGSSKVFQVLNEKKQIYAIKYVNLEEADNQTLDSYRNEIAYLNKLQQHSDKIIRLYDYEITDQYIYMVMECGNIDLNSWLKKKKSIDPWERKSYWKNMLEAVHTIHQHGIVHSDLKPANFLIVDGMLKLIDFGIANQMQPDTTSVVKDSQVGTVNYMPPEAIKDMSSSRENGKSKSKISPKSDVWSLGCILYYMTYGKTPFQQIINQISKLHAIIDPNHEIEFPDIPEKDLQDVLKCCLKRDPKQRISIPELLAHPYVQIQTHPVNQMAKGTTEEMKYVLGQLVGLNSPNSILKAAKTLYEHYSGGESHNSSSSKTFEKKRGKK
T18 sequence (Q96PN8 whole entry): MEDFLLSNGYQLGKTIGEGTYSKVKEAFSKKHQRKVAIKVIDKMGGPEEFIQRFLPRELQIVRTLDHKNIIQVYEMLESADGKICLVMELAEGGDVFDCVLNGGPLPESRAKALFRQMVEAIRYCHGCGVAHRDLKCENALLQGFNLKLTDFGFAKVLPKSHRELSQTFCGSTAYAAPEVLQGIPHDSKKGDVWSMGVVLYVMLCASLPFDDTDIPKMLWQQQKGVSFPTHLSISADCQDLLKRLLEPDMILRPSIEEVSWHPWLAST
T33 sequence (Q8TDX7 whole entry): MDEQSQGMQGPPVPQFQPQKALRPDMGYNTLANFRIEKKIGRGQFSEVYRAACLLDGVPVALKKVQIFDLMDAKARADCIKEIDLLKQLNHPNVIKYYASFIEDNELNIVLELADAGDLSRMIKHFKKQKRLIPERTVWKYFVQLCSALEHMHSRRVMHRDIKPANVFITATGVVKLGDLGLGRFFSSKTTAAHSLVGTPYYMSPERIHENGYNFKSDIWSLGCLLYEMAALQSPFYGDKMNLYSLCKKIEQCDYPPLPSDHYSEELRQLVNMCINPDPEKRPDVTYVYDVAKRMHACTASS
T20 sequence (P15056 whole entry V600E): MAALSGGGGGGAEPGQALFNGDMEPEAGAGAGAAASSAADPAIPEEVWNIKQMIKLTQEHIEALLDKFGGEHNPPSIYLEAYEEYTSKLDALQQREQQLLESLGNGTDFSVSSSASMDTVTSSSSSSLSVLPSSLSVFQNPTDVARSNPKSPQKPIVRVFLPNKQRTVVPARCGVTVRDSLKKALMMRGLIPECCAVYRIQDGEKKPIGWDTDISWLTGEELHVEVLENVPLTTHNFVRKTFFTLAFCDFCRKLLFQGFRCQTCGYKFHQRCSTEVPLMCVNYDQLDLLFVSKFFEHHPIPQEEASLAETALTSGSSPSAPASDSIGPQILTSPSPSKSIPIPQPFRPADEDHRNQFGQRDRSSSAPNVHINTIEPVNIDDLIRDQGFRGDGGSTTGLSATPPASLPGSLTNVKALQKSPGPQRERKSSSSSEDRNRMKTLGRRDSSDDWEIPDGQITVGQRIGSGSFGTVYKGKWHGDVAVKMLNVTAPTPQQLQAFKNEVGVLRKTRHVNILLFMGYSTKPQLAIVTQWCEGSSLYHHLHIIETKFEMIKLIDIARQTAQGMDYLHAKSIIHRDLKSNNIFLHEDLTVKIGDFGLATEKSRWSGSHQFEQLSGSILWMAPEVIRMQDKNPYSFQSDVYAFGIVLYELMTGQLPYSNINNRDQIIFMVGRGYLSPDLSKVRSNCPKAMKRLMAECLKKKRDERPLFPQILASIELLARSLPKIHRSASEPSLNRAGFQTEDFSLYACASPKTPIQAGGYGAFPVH
T38 sequence (P42680 whole entry): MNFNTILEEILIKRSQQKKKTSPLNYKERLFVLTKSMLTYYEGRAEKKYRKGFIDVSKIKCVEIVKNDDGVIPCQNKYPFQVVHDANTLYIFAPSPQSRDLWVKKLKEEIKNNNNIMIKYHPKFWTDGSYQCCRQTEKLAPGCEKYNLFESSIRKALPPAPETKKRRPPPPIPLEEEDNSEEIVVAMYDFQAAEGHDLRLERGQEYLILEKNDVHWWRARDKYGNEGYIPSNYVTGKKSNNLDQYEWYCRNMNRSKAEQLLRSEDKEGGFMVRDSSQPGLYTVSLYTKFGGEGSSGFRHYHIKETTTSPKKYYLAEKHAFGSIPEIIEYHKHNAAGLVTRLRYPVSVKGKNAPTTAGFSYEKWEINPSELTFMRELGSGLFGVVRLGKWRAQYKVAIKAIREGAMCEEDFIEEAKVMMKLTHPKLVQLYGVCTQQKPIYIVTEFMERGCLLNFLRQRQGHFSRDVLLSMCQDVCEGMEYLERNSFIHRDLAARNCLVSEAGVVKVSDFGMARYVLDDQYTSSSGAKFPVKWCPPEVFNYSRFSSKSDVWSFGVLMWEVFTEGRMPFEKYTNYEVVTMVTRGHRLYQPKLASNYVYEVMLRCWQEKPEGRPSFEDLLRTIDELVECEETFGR
T7 sequence (Q15418 392-735 limits assumed): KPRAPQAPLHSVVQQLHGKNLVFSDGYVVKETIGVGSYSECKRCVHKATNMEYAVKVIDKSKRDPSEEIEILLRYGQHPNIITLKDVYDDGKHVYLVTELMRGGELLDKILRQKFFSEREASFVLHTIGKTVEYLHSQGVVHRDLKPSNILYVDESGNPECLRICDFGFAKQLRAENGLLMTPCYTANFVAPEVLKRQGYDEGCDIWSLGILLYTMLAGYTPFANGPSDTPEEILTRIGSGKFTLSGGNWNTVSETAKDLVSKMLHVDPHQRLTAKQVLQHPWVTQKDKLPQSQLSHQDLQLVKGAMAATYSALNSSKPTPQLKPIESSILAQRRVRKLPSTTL

Brc1ccc2nccc(Nc3ccc4cn[nH]c4c3)c2c1 [Compound 35, 6-Bromo-N-(1H-indazol-6-yl)quinolin-4-amine]
activity at 1 µM [1]: 77% | activity at 1 µM [2]: 100% | activity at 1 µM [3]: 100% | activity at 1 µM [4]: 100% | activity at 1 µM [5]: 91% | activity at 1 µM [6]: 100% | activity at 1 µM [7]: 57% | activity at 1 µM [8]: 100% | activity at 1 µM [9]: 100% | activity at 1 µM [10]: 100% | activity at 1 µM [11]: 100% | activity at 1 µM [12]: 97% | activity at 1 µM [13]: 100% | activity at 1 µM [14]: 93% | activity at 1 µM [15]: 86% | activity at 1 µM [16]: 100% | activity at 1 µM [17]: 100% | activity at 1 µM [18]: 77% | activity at 1 µM [19]: 100% | activity at 1 µM [20]: 80% | activity at 1 µM [21]: 94% | activity at 1 µM [22]: 99% | activity at 1 µM [23]: 91% | activity at 1 µM [24]: 100% | activity at 1 µM [25]: 100% | activity at 1 µM [26]: 100% | activity at 1 µM [27]: 100% | activity at 1 µM [28]: 100% | activity at 1 µM [29]: 100% | activity at 1 µM [30]: 97% | activity at 1 µM [31]: 97% | activity at 1 µM [32]: 100% | activity at 1 µM [33]: 92% | activity at 1 µM [34]: 91% | activity at 1 µM ([35]; 35 at 1 µM, read-out: % inhibition): 11% | inhibition at 1 µM ([35]; KinomeScan, screened at 1 μM, read-out: kinases inhibited at 1 μM: MEK5): 89% | activity at 1 µM [36]: 100% | activity at 1 µM [37]: 100% | activity at 1 µM [38]: 100% | activity at 1 µM [39]: 100% | activity at 1 µM [40]: 80% | activity at 1 µM [41]: 100% | activity at 1 µM [42]: 88%
